From PubChem BioAssay (NCI)
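How tested: cells in 96-well plates exposed to compound for 48 hours at five concentrations. GI50: concentration for 50% inhibition of growth. TGI marks complete inhibition of growth.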

Columns and labels:
Test in all cases: growth of human tumour cells (NCI), 48 h; in the data active = GI50 below about 0.43 µM; inactive = the rest
[1] = system: RXF 393 renal
[2] = system: KM12 colon
[3] = system: HCT-116 colon
[4] = system: CCRF-CEM leukemia
[5] = system: NCI-H460 lung
[6] = system: SNB-75 CNS
[7] = system: NCI-H522 lung
[8] = system: CAKI-1 renal
[9] = system: HL-60(TB) leukemia
[10] = system: M14 melanoma
[11] = system: OVCAR-8 ovarian
[12] = system: UACC-257 melanoma
[13] = system: SW-620 colon
[14] = system: UO-31 renal
[15] = system: SR leukemia
[16] = system: BT-549 breast
[17] = system: NCI/ADR-RES ovarian
[18] = system: SF-295 CNS
[19] = system: HOP-92 NSCLC
[20] = system: HS 578T breast
[21] = system: IGROV1 ovarian
[22] = system: NCI-H226 lung
[23] = system: PC-3 prostate
[24] = system: SF-268 CNS
[25] = system: OVCAR-5 ovarian
[26] = system: HOP-62 NSCLC
[27] = system: SF-539 CNS
[28] = system: K-562 leukemia
[29] = system: HT29 colon
[30] = system: EKVX NSCLC
[31] = system: ACHN renal
[32] = system: SK-OV-3 ovarian
[33] = system: UACC-62 melanoma
[34] = system: DU-145 prostate
[35] = system: U251 CNS
[36] = system: MOLT-4 leukemia
[37] = system: SK-MEL-2 melanoma
[38] = system: COLO 205 colon
[39] = system: OVCAR-4 ovarian
[40] = system: 786-0 renal
[41] = system: SN12C renal
[42] = system: RPMI-8226 leukemia
[43] = system: A498 renal
[44] = system: MCF7 breast
[45] = system: OVCAR-3 ovarian
[46] = system: HCC-2998 colon
[47] = system: MDA-MB-231 breast
[48] = system: SK-MEL-5 melanoma
[49] = system: TK-10 renal
[50] = system: SNB-19 CNS
[51] = system: HCT-15 colon
[52] = system: SK-MEL-28 melanoma
[53] = system: MDA-MB-435
[54] = system: A549 NSCLC
[55] = system: LOX IMVI melanoma
[56] = system: NCI-H23 lung
[57] = system: MALME-3M melanoma
[58] = system: T-47D breast

Cn1cc(-c2ccc(-c3cn(C)c4ncccc34)[nH]2)c2cccnc21
3.08 µM: TGI [31]
7.56 µM: TGI [4]
10.9 µM: TGI [52]
3.59 µM: TGI [25]
2.13 µM: TGI [19]
3.84 µM: TGI [38]
8.11 µM: TGI [28]
3.17 µM: TGI [35]
12.1 µM: TGI [18]
38.6 µM: TGI [40]
3.93 µM: TGI [55]
1.61 µM: TGI [39]
3.47 µM: TGI [48]
24.8 µM: TGI [26]
4.23 µM: TGI [2]
active: GI50 [7] 0.19 µM
3.97 µM: TGI [10]
> 22.1 µM: TGI [15]
2.79 µM: TGI [16]
3.65 µM: TGI [1]
53.4 µM: TGI [21]
7.12 µM: TGI [57]
3.3 µM: TGI [45]
6.42 µM: TGI [20]
6.88 µM: TGI [42]
5.34 µM: TGI [13]
4.08 µM: TGI [47]
12.4 µM: TGI [3]
> 100 µM: TGI [5] | TGI [22] | TGI [29] | TGI [32] | TGI [34] | TGI [36] | TGI [41] | TGI [43] | TGI [44] | TGI [53] | TGI [54]
3.32 µM: TGI [27]
3.01 µM: TGI [14]
4.03 µM: TGI [8]
inactive: GI50 [1] 1.52 µM | GI50 [2] 2.02 µM | GI50 [3] 2.81 µM | GI50 [4] 2.27 µM | GI50 [5] 10 µM | GI50 [6] 1.82 µM | GI50 [8] 1.44 µM | GI50 [9] 1.87 µM | GI50 [10] 1.94 µM | GI50 [11] 2.44 µM | GI50 [12] 2.93 µM | GI50 [13] 2.32 µM | GI50 [14] 1.57 µM | GI50 [15] 1.62 µM | GI50 [16] 1.07 µM | GI50 [17] 2.93 µM | GI50 [18] 4.28 µM | GI50 [19] 0.448 µM | GI50 [20] 1.95 µM | GI50 [21] 4.5 µM | GI50 [22] > 67.1 µM | GI50 [23] 1.43 µM | GI50 [24] 2.23 µM | GI50 [25] 1.65 µM | GI50 [26] 3.02 µM | GI50 [27] 1.59 µM | GI50 [28] 1.76 µM | GI50 [29] 10 µM | GI50 [30] 1.62 µM | GI50 [31] 1.62 µM | GI50 [32] 25.1 µM | GI50 [33] 1.63 µM | GI50 [34] > 100 µM | GI50 [35] 1.66 µM | GI50 [36] 10.2 µM | GI50 [37] 1.91 µM | GI50 [38] 1.82 µM | GI50 [39] 0.638 µM | GI50 [40] 4.64 µM | GI50 [41] 7.26 µM | GI50 [42] 1.94 µM | GI50 [43] > 26.3 µM | GI50 [44] 5.54 µM | GI50 [45] 1.63 µM | GI50 [46] 2.51 µM | GI50 [47] 1.79 µM | GI50 [48] 1.6 µM | GI50 [49] 1.48 µM | GI50 [50] 2.65 µM | GI50 [51] 1.69 µM | GI50 [52] 3.33 µM | GI50 [53] 24 µM | GI50 [54] 7.84 µM | GI50 [55] 2 µM | GI50 [56] 3.18 µM | GI50 [57] 2.7 µM
3.76 µM: TGI [33]
3.38 µM: TGI [23]
5.45 µM: TGI [24]
4.34 µM: TGI [6]
12.7 µM: TGI [56]
6.45 µM: TGI [11]
8.03 µM: TGI [50]
7.48 µM: TGI [9]
9.59 µM: TGI [17]
19.6 µM: TGI [12]
4.63 µM: TGI [51]
2.88 µM: TGI [49]
4.04 µM: TGI [37]
5.89 µM: TGI [46]
0.451 µM: TGI [7]
3.34 µM: TGI [30]

Cc1nnc2sc(Cc3cnc(N)s3)nn12
> 100 µM: TGI [1] | TGI [2] | TGI [3] | TGI [4] | TGI [5] | TGI [6] | TGI [7] | TGI [9] | TGI [10] | TGI [11] | TGI [12] | TGI [13] | TGI [14] | TGI [15] | TGI [17] | TGI [19] | TGI [20] | TGI [21] | TGI [22] | TGI [23] | TGI [24] | TGI [25] | TGI [26] | TGI [27] | TGI [28] | TGI [29] | TGI [30] | TGI [31] | TGI [32] | TGI [33] | TGI [34] | TGI [35] | TGI [36] | TGI [37] | TGI [38] | TGI [39] | TGI [40] | TGI [41] | TGI [42] | TGI [44] | TGI [46] | TGI [47] | TGI [48] | TGI [49] | TGI [50] | TGI [51] | TGI [52] | TGI [58] | TGI [54] | TGI [56] | TGI [57]
